# Measurements published in paper PMC12040169 (PLOS Biology, 2025).
# Test: in vitro
# Conditions: human, hela cells, % viability
row,Structure (SMILES),"viability at 28.5 h, 10 µM [%]"
1,COC(=O)C(N)c1c[nH]c2ccccc12 (stereo not drawn) [CBK089840],104
2,COc1cc(-n2cnc3cc(-c4ccc(Cl)cc4)sc3c2=O)ccc1OCCN1CCCC1 [CBK089844C],40.7
3,CNC(=O)c1cc2ncc(C(F)(F)F)cc2s1 [CBK089882],93.1
4,NC(=O)c1sc2cc(C(F)(F)F)cnc2c1-c1cccs1 [CBK089891],88.2
5,Cn1nc2c(c1O)CCCC2 [CBK089897],102
6,CCOc1cc(/C=N/O)ccc1OC(=O)c1cccc([N+](=O)[O-])c1 [CBK090036],107
7,Cc1ccc(C(C)(C)C)c(OC(=O)c2cnc(C)cn2)c1 [CBK090261],96.5
8,N#CCc1ccc(OC(=O)c2cccnc2)cc1 [CBK090304],105
9,Nc1nccnc1C(=O)Oc1ccccc1 [CBK090311],88.1
10,O=C(Oc1ccccc1)c1cc(Cl)cnc1Cl [CBK090320],101
11,Cc1ccc(OC(=O)c2cc(Cl)cnc2Cl)cc1 [CBK090321],84.5
12,O=C(Oc1ccccc1)c1ccnc(Cl)c1 [CBK090322],87.2
13,Nc1ncc(-c2ccc(C(F)(F)F)cc2)nc1-c1ccc(C(=O)N2CCOCC2)cc1 [CBK090524],103
14,COc1cc(Nc2cc(-c3ccccc3N(C)C)ncn2)cc(OC)c1OC [CBK090702],64.2
15,COc1cc(Nc2cc(-c3ccco3)ncn2)cc(OC)c1OC [CBK090706],90.3
16,COc1cc(Nc2cc(-c3ccc(NC(C)=O)cc3)ncn2)cc(OC)c1OC [CBK090710],103
17,CCOC(=O)Cc1ccc(Nc2cc(-c3ccc(N(C)C)cc3)ncn2)cc1 [CBK090712],31.6
18,CC(=O)Nc1ccc(Nc2cc(-c3ccsc3)ncn2)cc1 [CBK090717],96.8
19,CC(=O)Nc1ccc(Nc2cc(-c3ccc(Cl)cc3)ncn2)cc1 [CBK090720],93.6
20,CC(=O)Nc1ccc(Nc2cc(-c3ccc(CC(C)C)cc3)ncn2)cc1 [CBK090723],99.4
21,COc1cccc(Nc2cc(-c3cccc(N)c3)ncn2)c1OC [CBK090726],104
22,COc1cccc(Nc2cc(-c3ccco3)ncn2)c1OC [CBK090727],92.2
23,COc1cccc(Nc2cc(-c3ccc(CC(C)C)cc3)ncn2)c1 [CBK090745],110

row,Structure (SMILES),"viability at 28.5 h, 10 µM [%]"
1,Oc1ccc(Nc2cc(-c3ccc(Cl)cc3)ncn2)cc1 [CBK090751],94.3
2,CC(C)Cc1ccc(-c2cc(Nc3ccc(O)cc3)ncn2)cc1 [CBK090754],93.6
3,COc1ccc(Nc2cc(-c3ccco3)ncn2)c(OC)c1 [CBK090761],105
4,COc1ccc(-c2cc(Nc3ccc(OC)cc3OC)ncn2)cc1 [CBK090763],46.7
5,Nc1cccc(-c2cc(Nc3ccc(CCO)cc3)ncn2)c1 [CBK090766],104
6,OCCc1ccc(Nc2cc(-c3ccc4c(c3)OCO4)ncn2)cc1 [CBK090767],97.8
7,OCCc1ccc(Nc2cc(-c3cc4ccccc4s3)ncn2)cc1 [CBK090770],103
8,OCCc1ccc(Nc2cc(-c3ccco3)ncn2)cc1 [CBK090771],100
9,COc1cc(C)c(Nc2cc(-c3cccc(N(C)C)c3)ncn2)cc1OC [CBK090780],43.5
10,COc1cc(C)c(Nc2cc(-c3ccc(C(N)=O)cc3)ncn2)cc1OC [CBK090784],98.9
11,COc1cc(C)c(Nc2cc(-c3ccc(F)c(F)c3)ncn2)cc1OC [CBK090787],73.4
12,COCCNc1cc(-c2ccc(C(C)=O)s2)ncn1 [CBK090791],115
13,COCCNc1cc(-c2ccc(SC)cc2)ncn1 [CBK090795],105
14,COCCNc1cc(-c2ccc(Cl)cc2)ncn1 [CBK090797],96.3
15,COCCNc1cc(-c2ccc(NC(C)=O)cc2)ncn1 [CBK090799],97.8
16,COCCNc1cc(-c2ccc(F)c(F)c2)ncn1 [CBK090800],100
17,CN(C)c1cccc(-c2cc(Nc3ccc4c(c3)OCCO4)ncn2)c1 [CBK090808],66.3
18,COc1ccc(Nc2cc(-c3ccsc3)ncn2)cc1OC [CBK090820],97.2
19,COc1ccc(Nc2cc(-c3ccco3)ncn2)cc1OC [CBK090822],99.5
20,CCn1c2ccccc2c2cc(Nc3cc(-c4cccc5ccccc45)ncn3)ccc21 [CBK090834],50.6
21,CCn1c2ccccc2c2cc(Nc3cc(-c4ccc(OC(F)(F)F)cc4)ncn3)ccc21 [CBK090842],87.3
22,c1nc(Nc2ccc3[nH]ccc3c2)cc(-c2ccc(N3CCOCC3)cc2)n1 [CBK090851],91.1
23,c1ccc2cc(-c3cc(Nc4ccc5[nH]ccc5c4)ncn3)ccc2c1 [CBK090853],80.1

row,Structure (SMILES),"viability at 28.5 h, 10 µM [%]"
1,FC(F)(F)c1cc(-c2cc(Nc3ccc4[nH]ccc4c3)ncn2)cc(C(F)(F)F)c1 [CBK090855],97.9
2,c1ccc(COc2ccccc2-c2cc(Nc3ccc4[nH]ccc4c3)ncn2)cc1 [CBK090856],107
3,c1ccc(COc2ccc(-c3cc(Nc4ccc5[nH]ccc5c4)ncn3)cc2)cc1 [CBK090857],111
4,c1ccc2sc(-c3cc(Nc4ccc5[nH]ccc5c4)ncn3)cc2c1 [CBK090858],82.5
5,O=[N+]([O-])c1cccc(-c2cc(Nc3ccc4[nH]ccc4c3)ncn2)c1 [CBK090860],108
6,CN(C)c1ccccc1-c1cc(Nc2ccc(C(C)(C)C)cc2)ncn1 [CBK090872],95.4
7,CCNc1cc(-c2ccc(N3CCOCC3)cc2)ncn1 [CBK090876],115
8,CCNc1cc(-c2cccc(N(C)C)c2)ncn1 [CBK090878],97.8
9,CCNc1cc(-c2ccc(Cl)cc2)ncn1 [CBK090880],99
10,CCNc1cc(-c2cncc(OC)c2)ncn1 [CBK090881],101
11,CCNc1cc(-c2ccc(OC)cc2)ncn1 [CBK090883],89
12,CCNc1cc(-c2ccc(CC(C)C)cc2)ncn1 [CBK090884],102
13,Nc1cccc(-c2cc(Nc3ccc(Cl)cc3)ncn2)c1 [CBK090886],91.7
14,CCCCCOc1ccc(Nc2cc(-c3ccccc3N(C)C)ncn2)cc1 [CBK090890],81.9
15,CCCCCOc1ccc(Nc2cc(-c3ccco3)ncn2)cc1 [CBK090892],92.6
16,CN1CCN(c2ccc(-c3cc(NC4CCCCC4)ncn3)cn2)CC1 [CBK090899],96.7
17,CN(C)c1cccc(-c2cc(NC3CCCCC3)ncn2)c1 [CBK090900],109
18,Clc1ccc(-c2cc(NC3CCCCC3)ncn2)cc1 [CBK090902],101
19,Nc1cccc(-c2cc(Nc3cccc(OCc4ccccc4)c3)ncn2)c1 [CBK090915],113
20,c1ccc(Oc2ccc(Nc3cc(-c4ccc(N5CCOCC5)cc4)ncn3)cc2)cc1 [CBK090923],83.3
21,c1ccc(-c2cccc(-c3cc(Nc4ccc(N5CCOCC5)cc4)ncn3)c2)cc1 [CBK090930],90.2
22,COc1cc(-c2cc(Nc3ccc(N(C)C)cc3)ncn2)cc(OC)c1OC [CBK090945],38.7
23,CN(C)c1ccc(Nc2cc(-c3ccco3)ncn2)cc1 [CBK090946],90.3

row,Structure (SMILES),"viability at 28.5 h, 10 µM [%]"
1,Cc1ccc(S(=O)(=O)Nc2ccc(Nc3cc(-c4ccc(CNC(=O)OC(C)(C)C)cc4)ncn3)cc2)cc1 [CBK090967],96.8
2,Cc1ccc(S(=O)(=O)Nc2ccc(Nc3cc(-c4cccc5oc6ccccc6c45)ncn3)cc2)cc1 [CBK090977],91.1
3,Cc1ccc(S(=O)(=O)Nc2ccc(Nc3cc(-c4cccc([N+](=O)[O-])c4)ncn3)cc2)cc1 [CBK090983],109
4,COc1cncc(-c2cc(Nc3ccc(NS(=O)(=O)c4ccc(C)cc4)cc3)ncn2)c1 [CBK090988],94.1
5,CCN(CCO)c1ccc(Nc2cc(-c3ccsc3)ncn2)cc1 [CBK091000],89.5
6,CCN(CCO)c1ccc(Nc2cc(-c3cccc([N+](=O)[O-])c3)ncn2)cc1 [CBK091002],92.2
7,CN(C)c1cccc(Nc2cc(-c3ccc(CCC(=O)O)cc3)ncn2)c1 [CBK091010],93.1
8,CC(=O)Nc1ccc(-c2cc(Nc3cccc(N(C)C)c3)ncn2)cc1 [CBK091017],83.7
9,COc1ccc(N2CCN(c3cc(-c4cc(C(F)(F)F)cc(C(F)(F)F)c4)ncn3)CC2)cc1OC [CBK091020],96.1
10,COc1ccc(N2CCN(c3cc(-c4ccccc4OCc4ccccc4)ncn3)CC2)cc1OC [CBK091024],97.5
11,COc1ccc(N2CCN(c3cc(-c4ccc(CCC(=O)O)cc4)ncn3)CC2)cc1OC [CBK091030],94.1
12,COc1ccc(N2CCN(c3cc(-c4cccc([N+](=O)[O-])c4)ncn3)CC2)cc1OC [CBK091031],86.4
13,COc1ccc(N2CCN(c3cc(-c4ccc(OC(F)(F)F)cc4)ncn3)CC2)cc1OC [CBK091032],94.1
14,CC[C@@H]1CCCCN1C(=O)c1sc2nc(C(C)=O)ccc2c1Cl [CBK091036],88.1
15,CC[C@H]1CCCCN1C(=O)c1sc2nc(C(C)=O)ccc2c1Cl [CBK091046],101
16,Cc1cc(O)ccc1Nc1cc(-c2ccccc2N(C)C)ncn1 [CBK091051],104
17,COc1cncc(-c2cc(Nc3ccc(O)cc3C)ncn2)c1 [CBK091061],103
18,O=C(CN1CCN(c2cc(-c3ccc4ccccc4c3)ncn2)CC1)N1CCCC1 [CBK091064],104
19,O=C(O)CCc1ccc(-c2cc(N3CCN(CC(=O)N4CCCC4)CC3)ncn2)cc1 [CBK091079],104
20,c1ccc(Oc2ccccc2-c2cc(N3CCN(c4ccccn4)CC3)ncn2)cc1 [CBK091083],91.5

# Same assay, conditions: human, hela cells, % viability, bulk resorufin, single well
row,Structure (SMILES),"viability at 28.5 h, 10 µM [%]"
1,CC(=O)Nc1ccc(OC(=O)N2CCCCC2)cc1 [CBK090124],99.1
